In general, IC50 refers to the concentration that gives 50% inhibition.

The record followed here is PubChem BioAssay AID504685 (Sanford-Burnham Center for Chemical Genomics, 2011).

The source made the active and inactive calls. How the calls were made is not given here.

For the experiment, the target named is Bcl-2-related protein A1 (Mus musculus) (UniProt Q07440). Put plainly: Bfl-1 counter-screen inhibitors, SAR follow-up, counter-screen for UBC13 polyubiquitination inhibitor project, biochemical, mouse Bfl-1 (AID 504685). As to conditions: Bfl-1 counterscreen for UBC13 inhibitors. In general terms: A counterscreen serves to expose hits that act by an unwanted route or on another target.

On to `CCCOC(=O)c1ccc(NC(=O)CCCCCN2C(=O)c3ccccc3C2=O)cc1`, for which the IC50 was > 100 µM (inactive).

Take `COc1cc2nc(N(CCCN(C)C)C(=O)c3ccc(S(=O)(=O)N4CCc5ccccc5C4)cc3)sc2cc1OC`: the IC50 is 69.3 µM. With `O=C(NCCCN1CCN(c2ccccc2)CC1)C1CCCN(c2ncnc3c2nc2n3CCCCC2)C1` (centres undefined) the figure was > 100 µM (inactive); with `CCCN1CCN(C(=O)C2CCN(c3ncnc4c3nc3n4CCCCC3)CC2)CC1`, > 100 µM (inactive). In the case of `Cc1cccc(C)c1NC(=O)Cn1c(=O)n(CCCC(=O)NC2CCN(Cc3ccccc3)CC2)c(=O)c2ccccc21` it was > 100 µM (inactive). With `Cc1nc2ccccc2c(=O)n1NC(=O)c1ccc(OC(F)F)cc1` the figure was > 100 µM (inactive). Regarding `O=C1c2cccc3cccc(c23)C(=O)N1CCN1CCN(CC(O)COc2ccccc2)CC1` (centres undefined), the IC50 is > 100 µM (inactive). With `Cc1ccc2nc(N(CCCN(C)C)C(=O)c3ccc(S(=O)(=O)N4CCc5ccccc5C4)cc3)sc2c1` the figure was > 100 µM (inactive).

Regarding `CC1CC(C)CN(C(=O)C2CCN(c3ncnc4c3nc3n4CCCCC3)CC2)C1` (centres undefined), the IC50 was > 100 µM (inactive). With `CCOc1cccc2sc(N(CCCN(C)C)C(=O)c3ccc(S(=O)(=O)N(CC)Cc4ccccc4)cc3)nc12` the figure was 86.6 µM; with `Cc1[nH]c2c(Cl)c(Cl)ccc2c1CCNC(=O)CCCCCN1C(=O)c2ccccc2C1=O`, > 100 µM (inactive); with `O=C1c2cccc3cccc(c23)C(=O)N1CC1CCN(CC(O)COc2ccc3ccccc3c2)CC1` (centres undefined), 68.5 µM. In the case of `CN1CCN(CCCNC(=O)c2ccc(/C=C3\Oc4ccccc4N(Cc4ccc(Cl)cc4)C3=O)cc2)CC1` it was > 100 µM (inactive); in that of `CCOc1ccc2nc(N(CCCN(C)C)C(=O)c3ccc(C(=O)c4ccccc4)cc3)sc2c1`, > 100 µM (inactive). As to `Cc1ccc(C)c(CN2CCC(CNC(=O)C3CCCN(c4ncnc5c4nc4n5CCCCC4)C3)CC2)c1` (centres undefined), the IC50 is > 100 µM (inactive). Take `O=C(CCCn1c(=O)c2ccccc2n(Cc2ccc(Cl)cc2)c1=O)NC1CCN(Cc2ccccc2)CC1`: the IC50 was > 100 µM (inactive). `Cc1cc(C)c2sc(N(CCCN(C)C)C(=O)c3ccc(S(=O)(=O)N4CCc5ccccc5C4)cc3)nc2c1`: the IC50 was > 100 µM (inactive). As for `Cc1ccc(NC(=O)C2CCN(c3ncnc4c3nc3n4CCCCC3)CC2)cc1Cl`, the IC50 is > 100 µM (inactive). In the case of `COc1cc(/C=C/c2cc[n+](C)cc2)ccc1OCC(=O)Nc1ccc(Cl)c(Cl)c1`, the IC50 was 55.3 µM. With `O=C1c2cccc3cccc(c23)C(=O)N1CC1CCN(CC(O)COCc2ccc3c(c2)OCO3)CC1` (centres undefined), the half-inhibitory concentration (IC50) is 96.2 µM. On to `O=C(CCCn1c(=O)c2ccccc2n(Cc2ccccc2F)c1=O)NC1CCN(Cc2ccccc2)CC1`, for which the IC50 is > 100 µM (inactive).

Consider `CN(C)CCCN(C(=O)c1ccc(C(=O)c2ccccc2)cc1)c1nc2cc3c(cc2s1)OCO3`, for which the IC50 is > 100 µM (inactive). For `COc1ccc(OC)c2sc(N(CCCN(C)C)C(=O)c3ccc(S(=O)(=O)N4CCc5ccccc5C4)cc3)nc12`, the IC50 was 12 µM.

Turning to `CCCCN(CC)S(=O)(=O)c1ccc(C(=O)N(CCCN(C)C)c2nc3cc(C)cc(C)c3s2)cc1`, the IC50 is > 100 µM (inactive).

For `COc1ccc(CCNC(=O)CCCCCN2C(=O)c3ccccc3C2=O)cc1`, the IC50 is > 100 µM (inactive).

As to `O=C(CCCCCN1C(=O)c2ccccc2C1=O)Nc1nc(C2CC2)cs1`, the IC50 is > 100 µM (inactive). Take `CCOc1ccc(NC(=O)Cn2c(=O)n(CCCC(=O)NC3CCN(Cc4ccccc4)CC3)c(=O)c3ccccc32)cc1`: the IC50 is > 100 µM (inactive). In the case of `COC(=O)c1ccc(OCC(O)CN2CCN(CCN3C(=O)c4cccc5cccc(c45)C3=O)CC2)cc1` (centres undefined), the IC50 is 56.9 µM. For the compound `Cc1cc(OCC(O)CN2CCN(CCN3C(=O)c4cccc5cccc(c45)C3=O)CC2)ccc1C(C)C` (centres undefined), the IC50 was > 100 µM (inactive). With `CN(C)CCCN(C(=O)c1ccc(C(=O)c2ccccc2)cc1)c1nc2cc3c(cc2s1)OCCO3` the figure was 85.3 µM.

`Cc1cc(C)c2sc(N(CCCN(C)C)C(=O)c3ccc(S(=O)(=O)N(C)C4CCCCC4)cc3)nc2c1`: the IC50 is > 100 µM (inactive).

In the case of `COc1cccc2sc(N(CCCN(C)C)C(=O)c3ccc(S(=O)(=O)N4CCc5ccccc5C4)cc3)nc12`, the IC50 was 24.1 µM.

With `N#Cc1ccccc1Cn1c(=O)n(CCCC(=O)NC2CCN(Cc3ccccc3)CC2)c(=O)c2ccccc21`, the IC50 was > 100 µM (inactive).

Regarding `CNCc1cc(Br)c(OCC(=O)Nc2ccccc2OC)c(OC)c1`, the IC50 is > 100 µM (inactive). Regarding `C=CCc1ccccc1OCC(O)CN1CCN(CCN2C(=O)c3cccc4cccc(c34)C2=O)CC1` (centres undefined), the IC50 was > 100 µM (inactive). Regarding `COc1cccc(NC(=O)CCCCCN2C(=O)c3cccc([N+](=O)[O-])c3C2=O)c1`, the IC50 was > 100 µM (inactive).

For `CN(C)CCCN(C(=O)c1ccc(S(=O)(=O)N2CCCCCC2)cc1)c1nc2ccc(Br)cc2s1`, the IC50 was > 100 µM (inactive).

With `O=C1c2cccc3cccc(c23)C(=O)N1CCN1CCN(CC(O)COc2ccc(C3CCCCC3)cc2)CC1` (centres undefined), the IC50 was > 100 µM (inactive). With `CCCCOC(=O)c1cccc(NC(=O)CCCCCN2C(=O)c3ccccc3C2=O)c1`, the IC50 is > 100 µM (inactive).

For the compound `NNC(=O)c1ccc(CN2C(=O)c3cccc4cccc2c34)cc1`, the IC50 is > 100 µM (inactive). For `CN(C)CCCN(C(=O)c1ccc2c(c1)CCCC2)c1nc2ccc(Cl)cc2s1`, the IC50 is > 100 µM (inactive). As to `Cc1ccc2c(c1)C1CN(C)CCC1N2C(=O)CCCN1C(=O)c2cccc3cccc(c23)C1=O` (centres undefined), the IC50 is > 100 µM (inactive).

Take `O=C(CCCCCN1C(=O)c2ccccc2C1=O)NCc1ccccc1`: the IC50 was > 100 µM (inactive). For `O=C(CCCCCN1C(=O)c2ccccc2C1=O)NCc1ccccn1`, the IC50 was > 100 µM (inactive). Regarding `O=C(C1CCN(c2ncnc3c2nc2n3CCCCC2)CC1)N1CCC(Cc2ccccc2)CC1`, the IC50 was > 100 µM (inactive). Regarding `CN(CCNC(=O)C1CCN(c2ncnc3c2nc2n3CCCCC2)CC1)Cc1ccccc1`, the IC50 is > 100 µM (inactive). As for `Cc1ccc(OCC(O)CN2CCN(CCN3C(=O)c4cccc5cccc(c45)C3=O)CC2)c(C)c1` (centres undefined), the IC50 was 97 µM. For the compound `O=C(NCC1CCN(Cc2cccc(Cl)c2)CC1)C1CCCN(c2ncnc3c2nc2n3CCCCC2)C1` (centres undefined), the IC50 is > 100 µM (inactive). On to `O=C(C1CCN(c2ncnc3c2nc2n3CCCCC2)CC1)N1CCN(c2ccccc2)CC1`, for which the IC50 is > 100 µM (inactive). Consider `O=C(C1CCN(c2ncnc3c2nc2n3CCCCC2)CC1)N1CCN(c2ccccn2)CC1`, for which the IC50 was > 100 µM (inactive).

Take `Cc1cc(C)c2sc(N(CCCN(C)C)C(=O)c3ccc(S(=O)(=O)N(C)Cc4ccccc4)cc3)nc2c1`: the IC50 is > 100 µM (inactive).

Regarding `Cc1cccc(OCC(O)CN2CCN(CCN3C(=O)c4cccc5cccc(c45)C3=O)CC2)c1C` (centres undefined), the IC50 was > 100 µM (inactive).

On to `O=C(CCCCn1c(=O)c2ccccc2n(Cc2ccccc2F)c1=O)NC1CCN(Cc2ccccc2)CC1`, for which the IC50 was > 100 µM (inactive).

Regarding `O=C(CCCn1c(=O)c2ccccc2n(Cc2cccc(F)c2)c1=O)NC1CCN(Cc2ccccc2)CC1`, the IC50 is > 100 µM (inactive). Take `CN(C)CCCN(C(=O)c1ccc(S(=O)(=O)N2CCCCCC2)cc1)c1nc2cc3c(cc2s1)OCCO3`: the IC50 was > 100 µM (inactive). As for `CN(C)CCCN(C(=O)c1ccc(S(=O)(=O)N2CCc3ccccc3C2)cc1)c1nc2ccc(F)cc2s1`, the IC50 is 60.7 µM. As to `Cc1ccc(C)c(OCC(O)CN2CCN(CCN3C(=O)c4cccc5cccc(c45)C3=O)CC2)c1` (centres undefined), the IC50 was > 100 µM (inactive).

Take `CC1CCCCN1C(=O)C1CCN(c2ncnc3c2nc2n3CCCCC2)CC1` (centres undefined): the IC50 is > 100 µM (inactive). Turning to `COC(=O)C1=C(NC(=O)CCCCCN2C(=O)c3ccccc3C2=O)SC2CCCC12` (centres undefined), the IC50 was > 100 µM (inactive). Consider `Cc1cc(NS(=O)(=O)c2ccc(NC(=O)CCCCCN3C(=O)c4ccccc4C3=O)cc2)nc(C)n1`, for which the IC50 was > 100 µM (inactive).

As for `O=C(CCCn1c(=O)c2ccccc2n(Cc2cccc([N+](=O)[O-])c2)c1=O)NC1CCN(Cc2ccccc2)CC1`, the IC50 is > 100 µM (inactive). Consider `CC(NC(=O)CCCCCN1C(=O)c2cccc([N+](=O)[O-])c2C1=O)c1ccccc1` (centres undefined), for which the IC50 was > 100 µM (inactive).

Regarding `CC(NC(=O)CCCCCN1C(=O)c2ccccc2C1=O)c1nc(-c2ccccc2)no1` (centres undefined), the IC50 is > 100 µM (inactive). As to `Cc1ccccc1OCC(O)CN1CCN(CCN2C(=O)c3cccc4cccc(c34)C2=O)CC1` (centres undefined), the IC50 is > 100 µM (inactive). With `CCc1ccc(OCC(O)CN2CCC(CN3C(=O)c4cccc5cccc(c45)C3=O)CC2)cc1` (centres undefined), the IC50 is > 100 µM (inactive). Turning to `CN(C)CCCN(C(=O)c1ccc(S(=O)(=O)N2CCCCC2)cc1)c1nc2cc3c(cc2s1)OCO3`, the IC50 was > 100 µM (inactive). As for `Cc1ccccc1CN1CCC(CNC(=O)C2CCCN(c3ncnc4c3nc3n4CCCCC3)C2)CC1` (centres undefined), the IC50 was > 100 µM (inactive). With `CC(=O)c1ccc(OCC(O)CN2CCN(CCN3C(=O)c4cccc5cccc(c45)C3=O)CC2)cc1` (centres undefined) the figure was 73.5 µM. With `Cc1cc(NC(=O)Cn2c(=O)n(CCCCC(=O)NC3CCN(Cc4ccccc4)CC3)c(=O)c3ccccc32)n[nH]1` the figure was > 100 µM (inactive); with `COc1ccc2sc(N(CCCN(C)C)C(=O)c3ccc(S(=O)(=O)N4CCc5ccccc5C4)cc3)nc2c1`, > 100 µM (inactive); with `O=C(CCCCCN1C(=O)c2cccc3cccc(c23)C1=O)NCc1cccnc1`, > 100 µM (inactive). On to `CN(C)CCCN(C(=O)c1ccc(S(=O)(=O)N2CCCC2)cc1)c1nc2ccc(Br)cc2s1`, for which the IC50 was > 100 µM (inactive). Regarding `COc1ccc(CCNC(=O)CCCCCN2C(=O)c3ccccc3C2=O)cc1OC`, the IC50 was > 100 µM (inactive). For `CCN(Cc1ccccc1)S(=O)(=O)c1ccc(C(=O)N(CCCN(C)C)c2nc3cc4c(cc3s2)OCO4)cc1`, the IC50 is 57 µM.
